Publication PMC6163981, “Novel and Selective Rhipicephalus microplus Triosephosphate Isomerase Inhibitors with Acaricidal Activity” (Veterinary Sciences, 2018)
“And” between values parts separate entries of the source, which are not always exact repeats. Identical values can stand only once. “Also recorded” adds a separate entry of the source. Like-named read-outs stand apart in the source and are kept apart here. Blank lines part the entries; values can stand above or below the compound they belong to.

Assays:
[1] = target: RmTIM (TIM from R. microplus) (Rhipicephalus microplus, UniProt A8B3A8); assay: biochemical
mice = details: cited from earlier work
[2] = design: method as in PMID 22803666; details: previous work; cited from earlier work
[3] = system: Trypanosoma cruzi TIM (TcTIM); details: previously obtained; cited from earlier work
[4] = target: T1, Homo sapiens TIM (HsTIM, HmTIM [sic] in Table 1) (Homo sapiens, UniProt P60174); assay: Human TIM inhibition (selectivity); assay type: biochemical
T1 construct: made in house; host or cells: E. coli

Rabbit TIM (RbTIM) = Rabbit TIM (RbTIM) (Oryctolagus cuniculus, UniProt P00939); assay: Rabbit TIM inhibition (selectivity); assay type: biochemical
BME26 embryonic cells [5] = assay: MTT viability assay on BME26 embryonic cells; assay type: cell-based, Rhipicephalus microplus; details: for viability at 100 µM / IC50: Rhipicephalus microplus, BME26, MTT, 24 h; for viability at 100 µM: read-out: cell viability at 100 µM; for IC50: read-out: IC50 in BME26 cells (In vitro anti-R. microplus)
[6] = system: mammalian TIMs (rabbit and human); assay: Mammalian TIM inhibition (rabbit and human, summarised); assay type: biochemical; details: 100 µM
mice (strain B6D2F1) = details: male, B6D2F1, mouse, in vivo
BME26 embryonic cells [7] = system: BME26 embryonic cells; design: method as in PMID 24956999, PMID 22036897; details: widely used acaricide, comparison; cited from earlier work

T1 sequence (P60174 whole entry): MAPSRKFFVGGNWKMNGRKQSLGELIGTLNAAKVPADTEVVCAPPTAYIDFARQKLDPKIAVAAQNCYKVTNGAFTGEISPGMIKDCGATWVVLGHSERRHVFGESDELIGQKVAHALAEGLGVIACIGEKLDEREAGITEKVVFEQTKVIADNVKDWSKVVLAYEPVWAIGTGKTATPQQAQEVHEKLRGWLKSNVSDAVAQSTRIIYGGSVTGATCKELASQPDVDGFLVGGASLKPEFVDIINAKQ
Sequence of RmTIM (TIM from R. microplus) (A8B3A8 1-249): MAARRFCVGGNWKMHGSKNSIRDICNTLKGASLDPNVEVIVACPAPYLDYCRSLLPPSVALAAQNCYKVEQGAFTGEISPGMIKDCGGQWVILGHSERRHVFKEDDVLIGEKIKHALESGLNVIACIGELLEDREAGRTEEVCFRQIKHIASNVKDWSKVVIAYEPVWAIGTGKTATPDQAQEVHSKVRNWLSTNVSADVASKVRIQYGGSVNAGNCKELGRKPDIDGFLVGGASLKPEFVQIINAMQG
Sequence of Rabbit TIM (RbTIM) (P00939 2-249 limits assumed): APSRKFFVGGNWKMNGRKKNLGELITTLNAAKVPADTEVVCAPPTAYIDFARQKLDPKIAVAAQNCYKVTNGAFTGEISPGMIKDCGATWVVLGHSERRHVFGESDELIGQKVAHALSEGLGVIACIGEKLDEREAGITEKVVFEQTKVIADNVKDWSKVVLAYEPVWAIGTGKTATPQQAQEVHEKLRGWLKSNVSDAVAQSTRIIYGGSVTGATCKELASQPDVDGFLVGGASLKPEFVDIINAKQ

Compound: CC1(C)[N+]([O-])=c2ccc(/C=C/c3ccccc3)cc2=[N+]1[O-] [Compound 39]
IC50 ([1]; read-out: IC50 (µM) RmTIM): 50 to 100 µM

Compound: N#Cc1nn(-c2c(Cl)cc(C(F)(F)F)cc2Cl)c(N)c1[S+]([O-])C(F)(F)F (centres unmarked) [fipronil]
acute oral LD50 (mice): 91 mg/kg

Compound: O=C1C(=Cc2ccc([N+](=O)[O-])o2)C(=O)N(Cc2ccccc2)S(=O)(=O)N1Cc1ccccc1 [Compound 52]
IC50 ([1]; read-out: IC50 (µM) RmTIM): 50 to 100 µM

Compound: Cc1c(C=O)no[n+]1[O-] [Compound 136]
IC50 ([1]; read-out: IC50 (µM) RmTIM): ~100 µM

Compound: O=C1C(=Cc2ccc([N+](=O)[O-])cc2)C(=O)N(Cc2ccccc2)S(=O)(=O)N1Cc1ccccc1 [Compound 50]
IC50 ([1]; read-out: IC50 (µM) RmTIM): ~50 µM and 50 µM
inhibition at 100 µM [4]: 0%
inhibition at 100 µM (Rabbit TIM (RbTIM)): 0%
Mammalian Triosephosphate isomerase inhibition [6]: did not affect
IC50 (BME26 embryonic cells [5]): 71 ± 8 µM
viability at 100 µM (BME26 embryonic cells [5]; 100 µM): 42%
Toxicology: LD50 (mice (strain B6D2F1)): 3 mmol/kg body weight in mice

Compound: ivermectin
IC50 (BME26 embryonic cells [7]): 3 µM

Compound: O=C(N/N=C/C=C/c1ccc([N+](=O)[O-])o1)Nc1ccc2ccccc2c1 [Compound 98]
IC50 ([1]; read-out: IC50 (µM) RmTIM): ~50 µM and 50 µM
inhibition at 100 µM [4]: 14%
inhibition at 100 µM (Rabbit TIM (RbTIM)): 21%
Mammalian Triosephosphate isomerase inhibition [6]: did not affect
IC50 (BME26 embryonic cells [5]): 67 ± 4 µM
viability at 100 µM (BME26 embryonic cells [5]; 100 µM): 40%
Toxicology: LD50 (mice (strain B6D2F1)): 3 mmol/kg body weight in mice

Compound: C=CCNC(=S)N/N=C/c1ccc2c(c1)[n+]([O-])c(C)c(C)[n+]2[O-] [Compound 179]
IC50 ([1]; read-out: IC50 (µM) RmTIM): ~100 µM

Compound: O=S(=O)(NCCc1ccccc1)NCCc1ccccc1 [Compound 62]
IC50 ([1]; IC50 (µM) RmTIM): 50 to 100 µM

More lines, main results first:

IC50 ([1]; read-out: IC50 (µM) RmTIM): ~100 µM
Compound: O=[N+]([O-])c1ccc(/C=C/C=N/NC(=S)Nc2ccccc2)o1 [Compound 99]

IC50 ([1]; read-out: IC50 (µM) RmTIM): 25 ± 3 µM
inhibition at 100 µM [4]: 28%
% Inhibition at 100 µM HmTIM ([4]; 100 µM): slight inhibitory activity
inhibition at 100 µM (Rabbit TIM (RbTIM)): 0%
Compound: Cc1ccc(-c2nsc(=O)[nH]2)cc1 [Compound 161]
penetration of biological membranes [2]: cannot penetrate biological membranes
IC50 [3]: 4 µM
effect on BME26 cells (BME26 embryonic cells [5]; MTT, 100 µM): did not have any effect; also recorded: no activity
viability at 100 µM (BME26 embryonic cells [5]; 100 µM): 100%

IC50 ([1]; read-out: IC50 (µM) RmTIM): ~100 µM
Compound: C=CCn1c(-c2ccc(OC)cc2)cs/c1=N/N=C/c1ccc([N+](=O)[O-])s1 [Compound 70]

IC50 ([1]; read-out: IC50 (µM) RmTIM): 50 to 100 µM
Compound: Clc1ccc(-c2csc(N/N=C/C=C/c3ccco3)n2)cc1 [Compound 81]

IC50 ([1]; read-out: IC50 (µM) RmTIM): 50 to 100 µM
Compound: Cc1ccc(/C=C/C=N/N2CCN(C/C=C/c3ccccc3)CC2)o1 [Compound 222]

IC50 ([1]; read-out: IC50 (µM) RmTIM): ~100 µM
Compound: Cc1c(CNc2ccc3ccccc3c2)no[n+]1[O-] [Compound 146]

IC50 ([1]; read-out: IC50 (µM) RmTIM): ~100 µM
Compound: O=C(N/N=C/c1c(-c2ccccc2)no[n+]1[O-])c1cnn(-c2ccccc2)c1 [Compound 134]
